# From paper PMC5007513, “Discovery of new diketopiperazines inhibiting Burkholderia cenocepacia quorum sensing in vitro and in vivo” (Scientific Reports, 2016)
# Where two headings read alike, the source gives them in different places.
# Molecular target: T1, B. cenocepacia CepI (Burkholderia cenocepacia, UniProt B4EMD2)
# T1 sequence (B4EMD2 1-202): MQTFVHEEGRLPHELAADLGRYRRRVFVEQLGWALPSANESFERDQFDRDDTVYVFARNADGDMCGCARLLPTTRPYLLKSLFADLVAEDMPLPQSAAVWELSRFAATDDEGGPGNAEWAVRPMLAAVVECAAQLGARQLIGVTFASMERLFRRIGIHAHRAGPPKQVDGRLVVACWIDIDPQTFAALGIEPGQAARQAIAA
# Assay: CepI enzymatic assay (holo-ACP formation with DCPIP)
# Assay type: biochemical, Burkholderia cenocepacia J2315
# Protocol: Determination of the CepI enzyme activity was performed spectrophotometrically by measuring holo-ACP formation with dichlorophenylindophenol (DCPIP; ε = 19100 M^−1 cm^−1) at 37 °C according to Christensen et al.[19]. Reaction mixtures typically contained 50 mM 4-(2-hydroxyethyl)-1-piperazineethanesulfonic acid pH 7.5 (HEPES), 0.005% Nonidet P-40, 0.13 mM DCPIP, 70 μM C8-ACP, 40 μM S-adenosyl methionine (SAM), 4 μM CepI and the reaction was started by addition of SAM after pre-incubation for 10 min.
# CepI inhibition was initially screened for all compounds at 100 μM (dissolved in DMSO). […] To determine IC50, the enzyme activities were measured in presence of different concentrations of compounds and values determined with equation (1): […]
# where A[I] is the enzyme activity at inhibitor concentration [I] and A[0] is the enzyme activity without inhibitor.
# Ki determination was determined using the equation (2) for noncompetitive inhibition[49]: […]
# [1] = Supplementary Table S1, initial screen at 100 μM
# [2] = recombinant CepI, read-out: CepI IC50
compound,measurement,setting,value
O=C1CNC(=O)C(c2cc(OCc3ccccc3)ccc2OCc2ccccc2)N1 (stereo not drawn) [6a],IC50,,30 ± 6 µM
O=C1N[C@H](Cc2ccccc2)C(=O)NC1c1cc(OCc2ccccc2)ccc1OCc1ccccc1 (stereo partly drawn) [6b],CepI IC50,[1],not inhibitory
CC(C)[C@H]1NC(=O)C(c2cc(OCc3ccccc3)ccc2OCc2ccccc2)NC1=O (stereo partly drawn) [6c],CepI IC50,[1],not inhibitory
O=C1CNC(=O)C(c2cc(O)ccc2O)N1 (stereo not drawn) [7a],CepI IC50,[1],not inhibitory
O=C1N[C@H](Cc2ccccc2)C(=O)NC1c1cc(O)ccc1O (stereo partly drawn) [7b],CepI IC50,[1],not inhibitory
CC(C)[C@H]1NC(=O)C(c2cc(O)ccc2O)NC1=O (stereo partly drawn) [7c],CepI IC50,[1],not inhibitory
O=C1C=CC(=O)C(C2NC(=O)CNC2=O)=C1 (stereo not drawn) [8a],IC50,"Supplementary Table S1, initial screen at 100 μM, read-out: CepI IC50",10 ± 1 µM
O=C1C=CC(=O)C(C2NC(=O)C(Cc3ccccc3)NC2=O)=C1 (stereo not drawn) [8b],IC50,,5 ± 0.8 µM
same,Ki,,17 ± 0.6 µM
same,mechanism of inhibition,towards both C8-ACP and SAM substrates,non-competitive inhibitor
CC(C)C1NC(=O)C(C2=CC(=O)C=CC2=O)NC1=O (stereo not drawn) [8c],IC50,[2],5 to 30 µM
"CN1CCN(C(c2ccccn2)c2c(-c3ccccc3)n(O)c3ccccc23)CC1 (stereo not drawn) [compound 1 from Christensen et al., reference compound]",IC50,[2],7.2 ± 0.2 µM
